# Measurements taken from publication PMC9860787, “Indene-Derived Hydrazides Targeting Acetylcholinesterase Enzyme in Alzheimer’s: Design, Synthesis, and Biological Evaluation” (Pharmaceutics, 2022).
# Entries after “also recorded” stand apart in the source; their conditions may differ.
# How the values were obtained:
# [1] = target: T1, hBuChE (Homo sapiens, UniProt P06276); test: biochemical; conditions: Ellman method, triplicate, three independent runs; read-out: IC50 ± SE hBuChE
# T1 construct: PTCh (derived from human plasma); from tissue; host or cells: human plasma
# Protocol: (§1) Enzyme activities were determined using the Ellman spectrophotometric method. Enzyme substrates acetylthiocholine iodide (ATCh) and propionylthiocholine iodide (PTCh) were purchased from Sigma-Aldrich, Steinheim, Germany, and thiole reagent 5.5′-dithiobis-2-nitrobenzoic acid (DTNB) from Sigma-Aldrich, St. Louis, MO, USA. Donpezil and were used as reference compounds (purchased from sigma);
# (§2) In initial state, ATCh (derived from human erythrocytes) and PTCh (derived from human plasma) were dissolved in water and DTNB in 0.1 M sodium phosphate buffer (pH 7.4). Sulindac analogues were dissolved in water, and all further dilutions were made in water. Final concentrations of synthetics were in the range of 0.01–200 µM, while substrates were 1.0 mM and 4.0 mM for ATCh and PTCh, respectively. The final dilution of AChE and BChE was 500 and 300 times, respectively. Briefly, 50 µL of AChE (1.00 U mL^−1) or 50 µL of BuChE (0.6 U mL^−1) and 20 µL of the test or standard compounds were incubated in 96 well plates for 30 min at room temperature. […] The IC50 values were calculated using absorbance obtained from the test and standard compounds. The assays were performed in triplicate with three independent runs.
# [2] = target: T2, hAChE (Homo sapiens, UniProt P22303); test: biochemical; conditions: for Selectivity Ratio = (IC50 of BuChE)/(IC50 of AChE): BuChE over AChE; for IC50: Ellman method, triplicate, three independent runs, read-out: IC50 ± SE hAChE
# T2 construct: ATCh (derived from human erythrocytes); from tissue; host or cells: human erythrocytes
# Protocol: as §1, §2
# [3] = Antioxidant DPPH assay; conditions: for antioxidant property (in words): DPPH assay, compared to ascorbic acid; for % Free Radicle Scavenging, Mean ± SE: DPPH
# Protocol: The assay was performed by previously mentioned protocol. […] The volume of solution was adjusted to 200 μL using methanol. The 96-well plate was incubated at 37 °C for 25 min on shaking water bath with moderate shaking. The absorbance of reaction mixture was measured at 520 nm wavelength. The reducing percentage (RP) of the DPPH was determined by the equation: RP=100 (A0−Ac)/A0 where A0 was the control or untreated DPPH absorbance, and Ac was the test treated DPPH absorbance. Ascorbic acid was used as the standard for the DPPH assay. The assay was performed in triplicate.
# [4] = target: AChE induced Aβ 1-42 aggregation (Homo sapiens, UniProt P22303); assay type: biochemical; conditions: 10 and 20 µM, ThT, 48 h incubation
# Protocol: Thioflavin T (ThT) assay was performed to determine the inhibition potential of SD-30 against AChE induced Aβ 1-42 aggregation. Aβ 1-42, purchased from Sigma, dissolved in the 10 mM phosphate buffer (PBS) of pH 7.5 to get a stock concentration of […]. The test compounds were dissolved in distilled water and further diluted with PBS. Different proportions of the Aβ 1-42: Inhibitor (1:0.5, 1:10, 1:20) were used in the ThT assay. […] The mixtures were incubated at room temperature for 48 h in the dark. […] The ThT assay was performed in triplicate and in three independent runs.
# [5] = system: SH-SY5Y neuroblastoma cell lines; test: Cell line-based toxicity study, MTT assay; conditions: 72 h
# Protocol: The toxicity of compound SD-30 was evaluated against SH-SY5Y neuroblastoma cell lines by the MTT assay according to the literature procedure with minor modifications. Briefly, the cell lines (density 1 × 10^5 cells/wells) were plated in 96 well plates and incubated for 24 h at 37 °C in CO2 incubator. Various concentrations of SD-30 ([…]) were added, and cells were incubated for 72 h. After that, […] of MTT reagent was added, and the cells were incubated for an additional 2 h. The obtained purple colored formazan crystals were solubilized in […] DMSO. The absorbance was measured at 570 nm, and the % cell viability was calculated. Each treatment was executed in triplicate and data are presented as percentage of the control.
# Generally, in vitro cell line studies have been routinely used as these can be helpful in primary optimization and mechanistic investigations before animal-based toxicology studies. The evaluation of the neuroprotection effect of compound SD-30 ([…]) on human neuroblastoma SH-SY5Y cell lines was assessed through MTT (3-(4,5-dimethylthiazol-2-yl)-2,5- diphenyl tetrazolium bromide) assay This cell line is often used in AD due to its human origin and ease of maintenance.
# T2 sequence (P22303 other isoform, or with tags, fused parts or gaps): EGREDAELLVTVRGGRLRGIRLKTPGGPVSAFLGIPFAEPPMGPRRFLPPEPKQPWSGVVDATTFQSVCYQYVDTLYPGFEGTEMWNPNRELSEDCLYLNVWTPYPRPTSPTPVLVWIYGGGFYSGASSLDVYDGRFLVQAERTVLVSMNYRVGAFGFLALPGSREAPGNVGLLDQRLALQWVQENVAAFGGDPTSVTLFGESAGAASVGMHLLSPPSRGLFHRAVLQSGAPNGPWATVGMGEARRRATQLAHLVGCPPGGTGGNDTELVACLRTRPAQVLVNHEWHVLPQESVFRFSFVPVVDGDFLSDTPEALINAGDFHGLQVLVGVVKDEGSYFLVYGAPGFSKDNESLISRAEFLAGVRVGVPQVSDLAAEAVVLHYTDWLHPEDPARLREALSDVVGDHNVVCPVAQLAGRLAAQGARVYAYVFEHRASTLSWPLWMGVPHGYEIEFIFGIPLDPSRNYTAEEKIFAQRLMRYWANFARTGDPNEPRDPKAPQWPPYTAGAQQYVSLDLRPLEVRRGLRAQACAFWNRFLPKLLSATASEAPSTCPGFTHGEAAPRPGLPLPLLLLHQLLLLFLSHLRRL
# Chain of AChE induced Aβ 1-42 aggregation (P22303 32-614): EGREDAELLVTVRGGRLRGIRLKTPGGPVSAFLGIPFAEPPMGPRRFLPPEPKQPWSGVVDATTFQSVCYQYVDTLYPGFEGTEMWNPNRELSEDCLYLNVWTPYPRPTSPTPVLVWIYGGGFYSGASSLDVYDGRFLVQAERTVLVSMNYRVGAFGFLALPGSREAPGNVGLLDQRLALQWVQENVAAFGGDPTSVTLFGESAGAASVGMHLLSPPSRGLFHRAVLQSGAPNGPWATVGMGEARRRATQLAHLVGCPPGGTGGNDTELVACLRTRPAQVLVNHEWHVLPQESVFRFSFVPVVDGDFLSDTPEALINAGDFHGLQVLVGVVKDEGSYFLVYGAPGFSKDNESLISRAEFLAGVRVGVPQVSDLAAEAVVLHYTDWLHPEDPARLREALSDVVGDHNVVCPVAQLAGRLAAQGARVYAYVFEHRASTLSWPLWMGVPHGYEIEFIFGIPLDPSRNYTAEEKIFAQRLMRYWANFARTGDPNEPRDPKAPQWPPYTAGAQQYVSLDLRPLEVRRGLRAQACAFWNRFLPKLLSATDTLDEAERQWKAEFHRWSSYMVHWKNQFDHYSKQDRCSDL
smiles,measurement,setting,value
"CC1=C(CC(=O)NN=Cc2cccc(O)c2)c2cc(F)ccc2C1=Cc1ccc([S+](C)[O-])cc1 (stereo in doubt) [SD-24, 2-(5-fluoro-2-methyl-1-((E)-4-(methylsulfinyl)benzylidene)-1H-inden-3-yl)-N’-((E)-3-hydroxybenzylidene)acetohydrazide]",IC50,[1],92.86 ± 0.066 µM
same,Selectivity Ratio = (IC50 of BuChE)/(IC50 of AChE),[2],2.30
same,IC50,[2],40.43 ± 0.067 µM
same,antioxidant property (in words),[3],reasonable antioxidant property
same,"% Free Radicle Scavenging, Mean ± SE",[3]; 50 µM,17.68 ± 0.478%
same,"% Free Radicle Scavenging, Mean ± SE",[3]; 100 µM,43.61 ± 0.983%
"COc1cccc(C=NNC(=O)CC2=C(C)C(=Cc3ccc([S+](C)[O-])cc3)c3ccc(F)cc32)c1 (stereo in doubt) [SD-25, 2-(5-fluoro-2-methyl-1-((E)-4-(methylsulfinyl)benzylidene)-1H-inden-3-yl)-N’-((E)-3-methoxybenzylidene) acetohydrazide]",IC50,[1],> 1000 µM
same,IC50,[2],> 1000 µM
same,"% Free Radicle Scavenging, Mean ± SE",[3]; 50 µM,14.00 ± 0.345%
same,"% Free Radicle Scavenging, Mean ± SE",[3]; 100 µM,40.95 ± 1.101%
"CC1=C(CC(=O)NN=Cc2ccc(O)cc2)c2cc(F)ccc2C1=Cc1ccc([S+](C)[O-])cc1 (stereo in doubt) [SD-30, 2-(5-fluoro-2-methyl-1-((E)-4-(methylsulfinyl)benzylidene)-1H-inden-3-yl)-N’-((E)-4-hydroxybenzylidene)acetohydrazide]",effect on AChE-induced Aβ1-42 aggregation (in words),[4],effectively inhibited AChE-induced Aβ aggregation; also recorded: effective on Aβ1-42 aggregation; also recorded: concentration-dependent decrease in the Aβ aggregation
same,IC50,[1],48.55 ± 0.136 µM
same,Selectivity Ratio = (IC50 of BuChE)/(IC50 of AChE),[2],3.50
same,IC50,[2],13.9 ± 0.163 µM
same,concentration up to which no significant toxicity / cytotoxicity was observed,[5],up to 30 mM
same,antioxidant property (in words),[3],reasonable antioxidant properties; also recorded: reasonable antioxidant property
same,"% Free Radicle Scavenging, Mean ± SE",[3]; 50 µM,17.37 ± 0.988%
same,"% Free Radicle Scavenging, Mean ± SE",[3]; 100 µM,45.39 ± 1.036%
"COc1ccccc1C=NNC(=O)CC1=C(C)C(=Cc2ccc([S+](C)[O-])cc2)c2ccc(F)cc21 (stereo in doubt) [SD-31, 2-(5-fluoro-2-methyl-1-((E)-4-(methylsulfinyl)benzylidene)-1H-inden-3-yl)-N’-((E)-2-methoxybenzylidene) acetohydrazide]",IC50,[1],> 1000 µM
same,IC50,[2],733.16 ± 0.143 µM
same,"% Free Radicle Scavenging, Mean ± SE",[3]; 50 µM,12.24 ± 0.222%
same,"% Free Radicle Scavenging, Mean ± SE",[3]; 100 µM,39.39 ± 0.860%
"O=C1O[C@H]([C@@H](O)CO)C(O)=C1O [Ascorbic acid, reference compound]","% Free Radicle Scavenging, Mean ± SE",[3]; 50 µM,42.66 ± 1.491%
same,"% Free Radicle Scavenging, Mean ± SE",[3]; 100 µM,76.76 ± 0.708%
CC1=C(CC(=O)NN=Cc2c(O)cccc2O)c2cc(F)ccc2/C1=C\c1ccc([S+](C)[O-])cc1 (centres unmarked) [SD-40],IC50,[1],286.01 ± 0.143 µM
same,Selectivity Ratio = (IC50 of BuChE)/(IC50 of AChE),[2],2.63
same,IC50,[2],108.9 ± 0.142 µM
same,"% Free Radicle Scavenging, Mean ± SE",[3]; 50 µM,28.67 ± 0.422%
same,"% Free Radicle Scavenging, Mean ± SE",[3]; 100 µM,63.42 ± 0.831%
CC1=C(CC(=O)NN=Cc2cccc(O)c2O)c2cc(F)ccc2/C1=C\c1ccc([S+](C)[O-])cc1 (centres unmarked) [SD-42],IC50,[1],264.33 ± 0.068 µM
same,Selectivity Ratio = (IC50 of BuChE)/(IC50 of AChE),[2],2.86
same,IC50,[2],92.44 ± 0.106 µM
same,antioxidant property (in words),[3],reasonable antioxidant property
same,"% Free Radicle Scavenging, Mean ± SE",[3]; 50 µM,30.43 ± 0.299%
same,"% Free Radicle Scavenging, Mean ± SE",[3]; 100 µM,64.98 ± 1.071%
